Measurements taken from patent US20090082342A1, “N-SUBSTITUTED PIPERIDINE DERIVATIVES AS SEROTONIN RECEPTOR AGENTS” (Acadia Pharmaceuticals, Inc., priority 2007, published 2009).
Structures can show the parent of a compound that is named as a salt.

Experiments:
Type in all cases: cell-based
[1] = target: T1, 5-HT2A receptor (Homo sapiens, UniProt P28223); assay: R-SAT functional receptor assay, inverse agonist activity at 5-HT2A
T1 construct: expressed in transfected cells; host or cells: NIH3T3 cells, pSI mammalian expression vector
Procedure: (§1) Receptor Selection and Amplification (R-SAT®) Assays. The functional receptor assay, Receptor Selection and Amplification Technology (R-SAT®), was used (with minor modifications from the procedure described previously (Brann, M. R. U.S. Pat. No. 5,707,798, 1998; Chem. Abstr. 1998, 128, 111548) to screen compounds for efficacy at the 5-HT2A receptor. Briefly, NIH3T3 cells were grown in 96 well tissue culture plates to 70-80% confluence. Cells were transfected for 12-16 h with plasmid DNAs using superfect (Qiagen Inc.) as per manufacturer's protocols. R-SAT's were generally performed with 50 ng/well of receptor and 20 ng/well of β-galactosidase plasmid DNA. All receptor and G-protein constructs used were in the pSI mammalian expression vector (Promega Inc) as described previously. The 5-HT2A or 5-HT2C receptor gene was amplified by nested PCR from brain cDNA using the oligodeoxynucleotides based on the published sequence (Saltzman et. al, Biochem. Biophys. Res. Comm. 1991, 181, 1469). For large-scale transfections, cells were transfected for 12-16 h, then trypsinized and frozen in DMSO. Frozen cells were later thawed, plated at 10,000-40,000 cells per well of a 96 well plate that contained drug. With both methods, cells were then grown in a humidified atmosphere with 5% ambient CO2 for five days. Media was then removed from the plates and marker gene activity was measured by the addition of the β-galactosidase substrate o-nitrophenyl β-D-galactopyranoside (ONPG, in PBS with 5% NP-40). The resulting colorimetric reaction was measured in a spectrophotometric plate reader (Titertek Inc.) at […]. All data were analyzed using the computer program XLFit (IDBSm). Efficacy is the percent maximal repression compared to repression by a control compound (ritanserin in the case of 5-HT2A). pIC50 is the negative of the log(IC50), where IC50 is the calculated concentration in Molar that produces 50% maximal repression. Various metabolites of N-(1-methylpiperidin-4-yl)-N-(4-fluorophenylmethyl)-N′-(4-(2-methylpropyloxy)phenylmethyl) carbamide, including the compounds of Formulae (I), (II), (III), (IV) and (V) as well as other metabolites, were assayed as described herein.

[2] = target: T2, 5-HT2C receptor (Homo sapiens, UniProt P28335); assay: R-SAT functional receptor assay, inverse agonist activity at 5-HT2C
T2 construct: expressed in transfected cells; host or cells: NIH3T3 cells, pSI mammalian expression vector
T2 sequence (P28335 33-458): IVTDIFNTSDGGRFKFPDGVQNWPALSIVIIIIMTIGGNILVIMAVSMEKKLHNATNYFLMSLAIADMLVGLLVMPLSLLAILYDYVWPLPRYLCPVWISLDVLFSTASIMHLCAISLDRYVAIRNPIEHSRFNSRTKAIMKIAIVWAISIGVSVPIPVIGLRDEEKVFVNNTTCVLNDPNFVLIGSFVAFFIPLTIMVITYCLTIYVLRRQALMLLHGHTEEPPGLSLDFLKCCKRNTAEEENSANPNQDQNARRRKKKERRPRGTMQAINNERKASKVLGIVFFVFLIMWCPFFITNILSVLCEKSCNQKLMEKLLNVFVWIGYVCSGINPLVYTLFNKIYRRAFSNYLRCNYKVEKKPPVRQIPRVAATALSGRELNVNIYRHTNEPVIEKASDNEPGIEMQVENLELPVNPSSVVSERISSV
Procedure: as §1, with “Various metabolites of N-(1-methylpiperidin-4-yl)-N-(4-fluorophenylmethyl)-N′-(4-(2-methylpropyloxy)phenylmethyl) carbamide, including the compounds of Formulae (I), (II), (III), (IV) and (V) as well as other metabolites, were assayed as described herein.” left out

[3] = target: T2, 5-HT2C receptor; assay: R-SAT functional receptor assay, antagonist activity at 5-HT2C
Procedure: as §1

[4] = target: T1, 5-HT2A receptor; assay: R-SAT functional receptor assay, antagonist activity at 5-HT2A
Procedure: as §1

T1 sequence (P28223 whole entry): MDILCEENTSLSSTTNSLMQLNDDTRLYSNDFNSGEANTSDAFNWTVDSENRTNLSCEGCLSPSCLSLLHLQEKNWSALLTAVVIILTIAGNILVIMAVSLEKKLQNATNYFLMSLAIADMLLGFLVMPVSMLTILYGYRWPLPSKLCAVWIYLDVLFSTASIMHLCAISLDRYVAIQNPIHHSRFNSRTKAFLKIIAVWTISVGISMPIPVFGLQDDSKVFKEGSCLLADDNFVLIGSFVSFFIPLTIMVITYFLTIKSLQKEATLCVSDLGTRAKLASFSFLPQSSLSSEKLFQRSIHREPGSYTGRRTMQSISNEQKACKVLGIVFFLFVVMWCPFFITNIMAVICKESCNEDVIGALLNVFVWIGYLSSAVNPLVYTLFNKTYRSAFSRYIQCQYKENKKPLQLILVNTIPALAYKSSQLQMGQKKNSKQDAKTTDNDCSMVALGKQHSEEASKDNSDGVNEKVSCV

SMILES	IC50 [1]	IC50 [2]	Ki [3]	Ki [4]
C[C@H](CO)COc1ccc(CNC(=O)N(Cc2ccc(F)cc2)C2CCN(C)CC2)cc1 [Formula (IV), N-(4-Fluorobenzyl)-N-(1-methyl-piperidin-4-yl)-N′-(4-(R)-[(3-hydroxy)-isobutoxy]benzyl)carbamide]	0.00316 µM	0.2 µM	0.158 µM	–
CN1CCC(N(Cc2ccc(F)cc2)C(=O)NCc2ccc(OCC(C)(C)O)cc2)CC1 [Formula (III), N-(4-Fluorobenzyl)-N-(1-methylpiperidin-4-yl)-N′-[4-(2-hydroxy)isobutoxybenzyl]carbamide Hydrochloride]	0.002 µM	0.794 µM	0.158 µM	0.001 µM
CC(C)COc1ccc(CNC(=O)N(Cc2ccc(F)cc2)C2CCNCC2)cc1 [Formula (II), N-(4-Fluorobenzyl)-N-(piperidin-4-yl)-N′-(4-isobutoxybenzyl)carbamide Hydrochloride]	0.00251 µM	–	0.1 µM	0.00126 µM
CN1CCC(N(Cc2ccc(F)cc2)C(=O)NCc2ccc(O)cc2)CC1 [Formula (I), N-(4-Fluorobenzyl)-N-(1-methylpiperidin-4-yl)-N′-(4-hydroxybenzyl)carbamide Hydrochloride]	0.0316 µM	–	0.316 µM	0.0126 µM
CC(C)COc1ccc(CNC(=O)N(Cc2ccc(F)cc2)C2CC[N+](C)([O-])CC2)cc1 (centres unmarked) [Formula (V), N-(4-Fluorobenzyl)-N-(1-methyl-1-oxopiperidin-4-yl)-N′-(4-isobutoxybenzyl)carbamide]	0.0316 µM	2 µM	0.398 µM	0.0316 µM
